Test results taken from patent publication US11274083B2, “Substituted thiophenyl uracils, salts thereof and the use thereof as herbicidal agents” (Syngenta Crop Protection AG, priority 2017, dated 2022).

Experiments:
Type in all cases: in vivo
Abutilon theophrasti = experiment: Herbicidal action post-emergence, greenhouse pot test; conditions: application rate 20 g/ha
Outline: (§1)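 Weeds were sown in sandy loam and grown in a greenhouse for 2 to 3 weeks, then sprayed at the one-leaf stage with WP or EC formulations plus 0.5% additive at 600 L/ha water, at 80 g/ha or lower. Efficacy was scored visually about 3 weeks later against untreated controls.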

Alopecurus myosuroides = experiment: as above; conditions: application rate 20 g/ha, scored visually after about 3 weeks vs untreated controls
Outline: as §1

Amaranthus retroflexus = experiment: as above; conditions: application rate 20 g/ha
Outline: as §1

Avena fatua = experiment: as above; conditions: application rate 20 g/ha
Outline: as §1

Echinochloa crus-galli = experiment: as above; conditions: application rate 20 g/ha
Outline: as §1

Matricaria inodora = experiment: as above; conditions: application rate 20 g/ha
Outline: as §1

Pharbitis purpurea = experiment: as above; conditions: application rate 20 g/ha
Outline: as §1

Polygonum convolvulus = experiment: as above; conditions: application rate 20 g/ha
Outline: as §1

Setaria viridis = experiment: as above; conditions: application rate 20 g/ha
Outline: as §1

Stellaria media = experiment: as above; conditions: application rate 20 g/ha
Outline: as §1

Veronica persica = experiment: as above; conditions: application rate 20 g/ha
Outline: as §1

Viola tricolor = experiment: as above; conditions: application rate 20 g/ha
Outline: as §1

Oryza sativa = experiment: Crop compatibility post-emergence, greenhouse pot test
Outline: (§2)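 Crops grown in sandy loam in greenhouse pots; treated post-emergence at one-leaf stage, 2–3 weeks after sowing, spraying WP or EC formulations as aqueous suspension/emulsion with 0.5% additive at 600 L/ha. Damage scored visually after about 3 weeks against untreated controls (0% = like control, 100% = dead).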

Zea mays = experiment: as above
Outline: as §2

Digitaria sanguinalis = experiment: Herbicidal action post-emergence, greenhouse pot test; conditions: application rate 20 g/ha
Hordeum murinum = experiment: as above; conditions: application rate 20 g/ha
Outline: as §1

Lolium rigidum = experiment: as above; conditions: application rate 20 g/ha
Outline: as §1

Triticum aestivum = experiment: Crop compatibility post-emergence, greenhouse pot test; conditions: application rate 20 g/ha
Outline: as §2

Row | Compound | Abutilon theophrasti (Efficacy in %) (Abutilon theophrasti) [%] | Alopecurus myosuroides (Efficacy in %) (Alopecurus myosuroides) [%] | Amaranthus retroflexus (Efficacy in %) (Amaranthus retroflexus) [%] | Avena fatua (Efficacy in %) (Avena fatua) [%] | Echinochloa crus-galli (Efficacy in %) (Echinochloa crus-galli) [%] | Matricaria inodora (Efficacy in %) (Matricaria inodora) [%] | Pharbitis purpurea (Efficacy in %) (Pharbitis purpurea) [%] | Polygonum convolvulus (Efficacy in %) (Polygonum convolvulus) [%] | Setaria viridis (Efficacy in %) (Setaria viridis) [%] | Stellaria media (Efficacy in %) (Stellaria media) [%] | Veronica persica (Efficacy in %) (Veronica persica) [%] | Viola tricolor (Efficacy in %) (Viola tricolor) [%] | Oryza sativa (Efficacy in %) (Oryza sativa; application rate 20 g/ha) [%] | Zea mays (Efficacy in %) (Zea mays; application rate 20 g/ha) [%] | Digitaria sanguinalis (Efficacy in %) (Digitaria sanguinalis) [%] | Hordeum murinum (Efficacy in %) (Hordeum murinum) [%] | Lolium rigidum (Efficacy in %) (Lolium rigidum) [%] | Triticum aestivum (Efficacy in %) (Triticum aestivum) [%] | Oryza sativa (Efficacy in %) (Oryza sativa; application rate 5 g/ha) [%] | Zea mays (Efficacy in %) (Zea mays; application rate 5 g/ha) [%]
1 | CCOC(=O)CCOC(=O)C(CC)Sc1cc(-n2c(=O)cc(C(F)(F)F)n(C)c2=O)c(F)cc1Cl (stereo not drawn) [I.1-2-3, 3-Ethoxy-3-oxopropyl 2-({2-chloro-4-fluoro-5-[3-methyl-2,6-dioxo-4-(trifluoromethyl)-3,6-dihydropyrimidin-1(2H)-yl]phenyl}sulfanyl)butanoate] | 100 | 90 | 100 | 100 | 100 | 100 | 100 | 100 | 100 | 100 | 100 | 100 | 0 | 0 | 100 |  |  |  |  | 
2 | CC(Sc1cc(-n2c(=O)cc(C(F)(F)F)n(C)c2=O)c(F)cc1Cl)C(=O)OCC(=O)OCc1ccccc1 (stereo not drawn) [I.1-46] | 100 | 80 | 100 |  | 100 | 100 | 100 | 100 | 100 | 100 | 100 | 100 |  |  | 100 | 100 | 80 | 20 |  | 
3 | COC(=O)C1(OC(=O)C(C)Sc2cc(-n3c(=O)cc(C(F)(F)F)n(C)c3=O)c(F)cc2Cl)CC1 (stereo not drawn) [I.1-102] | 100 |  | 100 |  | 100 | 100 | 100 | 100 | 100 | 80 | 100 | 100 |  |  | 100 | 100 | 80 |  | 0 | 0
